Measured values reported in PMC12081029, “Structural, Spectroscopic, and Docking Analysis of N,O‐Donor Ligand Metal Complex Nanoparticles With Hypolipidemic Effects via Lipoprotein Lipase Activation in High‐Fat Diet Mice” (Chemistry & Biodiversity, 2024).
“And” between values parts separate entries of the source, which are not always exact repeats. Equal entries are not always repeated. Structures can show the parent of a compound that is named as a salt. Where two headings read alike, the source gives them in different places.

How the values were obtained:
[1] = test system: Staphylococcus aureus; details: cited from earlier work
[2] = test system: Salmonella typhi; design: method as in PMID 16740311; details: cited from earlier work
[3] = test system: Bacillus subtilis; details: cited from earlier work
[4] = test system: Escherichia coli; details: cited from earlier work
[5] = test system: Aspergillus niger; design: method as in PMID 16740311; details: cited from earlier work
[6] = test system: Aspergillus terreus; assay: Agar diffusion, inhibition zone (ZOI) and activity index
[7] = test system: Escherichia coli; assay: as above; details: Escherichia coli
[8] = test system: lipoprotein lipase (L. lipase); assay: Serum L. lipase activity in high-fat diet mice (fluorometric kit); format: in vivo; details: HFD C57BL/6 mice
Experimental: (§1) This study employed 8‐week‐old male C57BL/6 mice of matched weight (around 20–25 g) from an inbred “genetically identical” strain. The mice were purchased from the National Research Center's Animal House. Then, they were subdivided into five groups, each group containing eight mice; four groups were treated with CETZ.2HCl (antihistamine drug) and its metal complexes, whereas one group was left untreated and classified as a control group. Animals were housed in modular plastic veterinary cages at air‐conditioned room, under pathogen‐free conditions. Mice were fed HFD, which consisted of carbs 42.0%, fat 23.0%, protein 17.0%, fiber 3.0%, minerals 5.0%, and moisture 10.0% for 3 months, together with administration of either CETZ.2HCl or its metal complexes (4 mg kg ^−1 body weight) in DMF [37]. Experiments were performed in accordance with the regulations of the Animal Care and Use Committee of the College of Veterinary Medicine, Mansoura University (MU‐ACUC), Egypt; MU‐ACUC (PHARM.R.24.02.30), complied with “Guide for the Care and Use of Laboratory Animals” (National Research Council publication 8th ed., USA, 2011).
(§2) Specimens of blood were gathered from the retro‐orbital sinus, under halothane (1.5 percent v/v halothane in oxygen) anesthesia via inhalation. The collected blood was allowed to clot, by centrifugation at 1600 rpm for 20 min, to obtain serum. Isolated sera were maintained at −80°C until tests of liver function in addition to lipid profiles were performed. For estimation of L. lipase activity, fluorometric L. lipase activity assay kit was utilized following the manufacturer's protocol (Cat. No. STA‐610, Cell BIOLABS INC., San Diego, USA). Serum T. chol. LDL, HDL, TG, ALT (alanine aminotransferase), AST (aspartate aminotransferase), and ALP (alkaline phosphatase) were examined with Roche kits using COBAS Integra 400 and COBAS Integra‐400 plus (Roche Diagnostics Limited, Switzerland).

[9] = test system: Escherichia coli; assay: MIC / MBC determination
[10] = test system: Staphylococcus aureus; assay: Agar diffusion, inhibition zone (ZOI) and activity index; details: Staphylococcus aureus
[11] = test system: Bacillus subtilis; assay: MIC / MBC determination
[12] = test system: Staphylococcus aureus; assay: MIC / MBC determination
[13] = test system: Salmonella typhi; assay: Agar diffusion, inhibition zone (ZOI) and activity index; format: cell-based; details: Salmonella typhi
[14] = test system: Bacillus subtilis; assay: as above; details: Bacillus subtilis
[15] = test system: Aspergillus niger; assay: as above; details: Aspergillus niger; 10^−3 M in DMF, 5 mm holes, 7 days at 30°C
[16] = Serum liver function enzymes in high-fat diet mice; format: in vivo; details: HFD C57BL/6 mice, 4 mg kg^−1 body weight, 3 months, mean ± SD
Experimental: as §1, §2

[17] = test system: Salmonella typhi; assay: MIC / MBC determination; format: cell-based; details: Salmonella enterica, TYPHI
[18] = test system: Aspergillus niger; assay: MIC determination
[19] = Serum lipid profile in high-fat diet mice; format: in vivo; details: HFD C57BL/6 mice, 4 mg kg^−1 body weight, 3 months, mean ± SD
Experimental: as §1, §2

[20] = test system: Aspergillus terreus; assay: MIC determination
[21] = Table 9, preceding research ref [68]
[22] = 10^−3 M in DMF, 5 mm holes, 20 h at 37°C
[23] = ZOI of compound / ZOI of standard (gentamicin) × 100
[24] = ZOI of compound / ZOI of standard (ampicillin) × 100

## O.O.O=C([O-])COCCN1CCN(C(c2ccccc2)c2ccc(Cl)cc2)CC1.O=[N+]([O-])[O-].[Cu+2].c1ccc(-c2ccccn2)nc1 (centres unmarked) [[(Cu(CETZ)(Bipy)(H2O)2(NO3)]]
[1]; Table 9, Staphylococcus aureus ref [68]
  AI: 105.7
[1]; [21]
  Staphylococcus aureus (inhibition zone): 24 ^+ ^3 ± 0.13
[2]; Table 9, Salmonella typhi ref [68]
  AI: 59.9
[2]; [21]
  Salmonella typhi (inhibition zone): 12.4 ^+ ^1 ± 0.22
[3]; Table 9, Bacillus subtillis ref [68]
  AI: 55.3
[3]; [21]
  Bacillus subtillis (inhibition zone): 15.7 ^+ ^1 ± 0.001
[4]; Table 9, Escherichia coli ref [68]
  AI: 113.3
[4]; [21]
  Escherichia coli (inhibition zone): 22.1 ^+ ^2 ± 0.005
[5]; Table 9, Aspergillus niger ref [68]
  AI: 88.89
[5]; [21]
  Aspergillus niger (inhibition zone): 17.6 ^+ ^1 ± 0.11

## O=C(O)COCCN1CCN(C(c2ccccc2)c2ccc(Cl)cc2)CC1 (racemic) [CETZ.2HCl, (RS)‐2‐[2‐[4‐[(4‐chlorophenyl)phenylmethyl]piperazine‐L‐yl]‐ethoxy]acetic acid, dihydrochloride, reference compound]
[6]; 10^−3 M in DMF, 5 mm holes, 7 days at 30°C
  ZOI: 10.3 ±0.27 mm
[6]; ZOI of compound / ZOI of standard (colitrimazole) × 100
  AI: 58.9%
[7]; [22]
  ZOI: 8.5 ±0.50 mm
[7]; [23]
  AI: 43.6%
[8]; 4 mg kg^−1 body weight in DMF, 3 months, mean ± SD
  L. lipase (serum enzyme activity): 104.88± 26.5 U/L and 104.88 U/L
[8]; rounded, 4 mg kg^−1 body weight
  mean L. lipase activity: 104.9 U L^−1
[9]
  MBC: 0.091 µg/mL
  MIC: 0.075 ± 0.01 µg/mL
[10]; [22]
  ZOI: 9.4 ± 0.02 mm
[10]; [24]
  AI: 41.4%
[11]
  MIC: 0.05 µg/mL
[12]
  MBC: 0.049 µg/mL and 0.049 ± 0.01 µg/mL
  MIC: 0.025 µg/mL and 0.025 ± 0.02 µg/mL
[13]; [22]
  ZOI: 7.7 ±0.58 mm
[13]; [23]
  AI: 37.2%
[14]; [22]
  ZOI: 12.1 ± 0.15 mm
[14]; [24]
  AI: 42.6%
[15]
  ZOI: 12.5 ±0.36 mm
[16]
  ALP: 90.5 ± 16.79 U L^−1
  ALT: 245.63 ± 43.99 U L^−1
  AST: 345.5 ± 57.73 U L^−1
[17]
  MBC: 0.037 ± 0.01 µg/mL
[18]
  MIC: 0.025 µg/mL and 0.025 ± 0.01 µg/mL
[19]
  HDL: 85.25 ± 6.23 mg/dL
  LDL: 93.25 ± 8.15 mg/dL
  Total Chol.: 230.38 mg/dL
  Trig: 80.5 ± 10.18 mg/dL
[20]
  MIC: 0.025 µg/mL and 0.025 ± 0.01 µg/mL
